ChEMBL document CHEMBL4152224, “The Identification of Potent, Selective, and Orally Available Inhibitors of Ataxia Telangiectasia Mutated (ATM) Kinase: The Discovery of AZD0156 (8-{6-[3-(Dimethylamino)propoxy]pyridin-3-yl}-3-methyl-1-(tetrahydro-2 H-pyran-4-yl)-1,3-dihydro-2 H-imidazo[4,5- c]quinolin-2-one)” (J Med Chem, 2018)
In brackets after ≈: the same amount, converted by molar mass. Each block holds one compound with its values, some of them ahead of it.

Tests used:
in vivo [1] = details: rat
[2] = Intrinsic clearance in human hepatocytes assessed per million cells
[3] = Intrinsic clearance in rat hepatocytes assessed per million cells
[4] = target: Serine/threonine-protein kinase ATR (Homo sapiens, UniProt Q13535)
in vivo [5] = details: dog
[6] = Volume of distribution at steady state in rat; assay type: ADME, organism-based; details: in vivo, read-out: Vdss
[7] = Thermodynamic solubility of the compound in 0.1M aqueous phosphate buffer at pH 7.4 after 24 hrs by LC-UV analysis; assay type: physicochemical; details: read-out: Therm_solubility
[8] = Oral bioavailability in dog; assay type: ADME, organism-based, Canis lupus familiaris; details: in vivo
in vivo [9] = details: dog; remark: listed apart in the source
in vitro = details: dog, MDCK-MDR1
Description: Efflux ratio of apparent permeability across basolateral to apical over apical to basolateral side in MDCK cells overexpressing MDR1

in vivo [10] = details: rat; remark: listed apart in the source
[11] = Volume of distribution at steady state in dog; assay type: ADME, organism-based, Canis lupus familiaris; details: in vivo, read-out: Vdss
[12] = Apparent permeability across apical to basolateral side in MDCK cells overexpressing MDR1; assay type: ADME, cell-based, Canis lupus familiaris; details: dog
[13] = target: Voltage-gated inwardly rectifying potassium channel KCNH2 (Homo sapiens, UniProt Q12809); assay: Inhibition of human ERG by electrophysiology assay
[14] = Buffer/octanol partition coefficient, log D of the compound at pH 7.4 by shake flask method; assay type: physicochemical
[15] = Oral bioavailability in rat; assay type: ADME, organism-based; details: in vivo
[16] = Dissociation constant, pKa of the compound; assay type: physicochemical
Homo sapiens [17] = species: Homo sapiens; assay: Selectivity ratio of IC50 for DNA-PK derived from human HeLa cells to IC50 for ATM derived from human HeLa cell nuclear extract
Homo sapiens [18] = species: Homo sapiens; assay: Selectivity ratio of IC50 for mTOR derived from human HeLa cells to IC50 for ATM derived from human HeLa cell nuclear extract
Homo sapiens [19] = species: Homo sapiens; assay: Selectivity ratio of IC50 for ATR derived from human HeLa cell cytoplasmic extract to IC50 for ATM derived from human HeLa cell nuclear extract
[20] = target: Serine-protein kinase ATM (Homo sapiens, UniProt Q13315); assay: Inhibition of ATM derived from human HeLa cell nuclear extract using glutathione S-transferase p53N66 as substrate preincubated for 10 mins followed by ATP addition and subsequent incubation for 1 hr measured after 1.5 hrs by ELISA
Homo sapiens [21] = species: Homo sapiens; assay: Selectivity ratio of IC50 for PI3K derived from human HeLa cells to IC50 for ATM derived from human HeLa cell nuclear extract

Serine/threonine-protein kinase ATR, sequence (Q13535 whole entry): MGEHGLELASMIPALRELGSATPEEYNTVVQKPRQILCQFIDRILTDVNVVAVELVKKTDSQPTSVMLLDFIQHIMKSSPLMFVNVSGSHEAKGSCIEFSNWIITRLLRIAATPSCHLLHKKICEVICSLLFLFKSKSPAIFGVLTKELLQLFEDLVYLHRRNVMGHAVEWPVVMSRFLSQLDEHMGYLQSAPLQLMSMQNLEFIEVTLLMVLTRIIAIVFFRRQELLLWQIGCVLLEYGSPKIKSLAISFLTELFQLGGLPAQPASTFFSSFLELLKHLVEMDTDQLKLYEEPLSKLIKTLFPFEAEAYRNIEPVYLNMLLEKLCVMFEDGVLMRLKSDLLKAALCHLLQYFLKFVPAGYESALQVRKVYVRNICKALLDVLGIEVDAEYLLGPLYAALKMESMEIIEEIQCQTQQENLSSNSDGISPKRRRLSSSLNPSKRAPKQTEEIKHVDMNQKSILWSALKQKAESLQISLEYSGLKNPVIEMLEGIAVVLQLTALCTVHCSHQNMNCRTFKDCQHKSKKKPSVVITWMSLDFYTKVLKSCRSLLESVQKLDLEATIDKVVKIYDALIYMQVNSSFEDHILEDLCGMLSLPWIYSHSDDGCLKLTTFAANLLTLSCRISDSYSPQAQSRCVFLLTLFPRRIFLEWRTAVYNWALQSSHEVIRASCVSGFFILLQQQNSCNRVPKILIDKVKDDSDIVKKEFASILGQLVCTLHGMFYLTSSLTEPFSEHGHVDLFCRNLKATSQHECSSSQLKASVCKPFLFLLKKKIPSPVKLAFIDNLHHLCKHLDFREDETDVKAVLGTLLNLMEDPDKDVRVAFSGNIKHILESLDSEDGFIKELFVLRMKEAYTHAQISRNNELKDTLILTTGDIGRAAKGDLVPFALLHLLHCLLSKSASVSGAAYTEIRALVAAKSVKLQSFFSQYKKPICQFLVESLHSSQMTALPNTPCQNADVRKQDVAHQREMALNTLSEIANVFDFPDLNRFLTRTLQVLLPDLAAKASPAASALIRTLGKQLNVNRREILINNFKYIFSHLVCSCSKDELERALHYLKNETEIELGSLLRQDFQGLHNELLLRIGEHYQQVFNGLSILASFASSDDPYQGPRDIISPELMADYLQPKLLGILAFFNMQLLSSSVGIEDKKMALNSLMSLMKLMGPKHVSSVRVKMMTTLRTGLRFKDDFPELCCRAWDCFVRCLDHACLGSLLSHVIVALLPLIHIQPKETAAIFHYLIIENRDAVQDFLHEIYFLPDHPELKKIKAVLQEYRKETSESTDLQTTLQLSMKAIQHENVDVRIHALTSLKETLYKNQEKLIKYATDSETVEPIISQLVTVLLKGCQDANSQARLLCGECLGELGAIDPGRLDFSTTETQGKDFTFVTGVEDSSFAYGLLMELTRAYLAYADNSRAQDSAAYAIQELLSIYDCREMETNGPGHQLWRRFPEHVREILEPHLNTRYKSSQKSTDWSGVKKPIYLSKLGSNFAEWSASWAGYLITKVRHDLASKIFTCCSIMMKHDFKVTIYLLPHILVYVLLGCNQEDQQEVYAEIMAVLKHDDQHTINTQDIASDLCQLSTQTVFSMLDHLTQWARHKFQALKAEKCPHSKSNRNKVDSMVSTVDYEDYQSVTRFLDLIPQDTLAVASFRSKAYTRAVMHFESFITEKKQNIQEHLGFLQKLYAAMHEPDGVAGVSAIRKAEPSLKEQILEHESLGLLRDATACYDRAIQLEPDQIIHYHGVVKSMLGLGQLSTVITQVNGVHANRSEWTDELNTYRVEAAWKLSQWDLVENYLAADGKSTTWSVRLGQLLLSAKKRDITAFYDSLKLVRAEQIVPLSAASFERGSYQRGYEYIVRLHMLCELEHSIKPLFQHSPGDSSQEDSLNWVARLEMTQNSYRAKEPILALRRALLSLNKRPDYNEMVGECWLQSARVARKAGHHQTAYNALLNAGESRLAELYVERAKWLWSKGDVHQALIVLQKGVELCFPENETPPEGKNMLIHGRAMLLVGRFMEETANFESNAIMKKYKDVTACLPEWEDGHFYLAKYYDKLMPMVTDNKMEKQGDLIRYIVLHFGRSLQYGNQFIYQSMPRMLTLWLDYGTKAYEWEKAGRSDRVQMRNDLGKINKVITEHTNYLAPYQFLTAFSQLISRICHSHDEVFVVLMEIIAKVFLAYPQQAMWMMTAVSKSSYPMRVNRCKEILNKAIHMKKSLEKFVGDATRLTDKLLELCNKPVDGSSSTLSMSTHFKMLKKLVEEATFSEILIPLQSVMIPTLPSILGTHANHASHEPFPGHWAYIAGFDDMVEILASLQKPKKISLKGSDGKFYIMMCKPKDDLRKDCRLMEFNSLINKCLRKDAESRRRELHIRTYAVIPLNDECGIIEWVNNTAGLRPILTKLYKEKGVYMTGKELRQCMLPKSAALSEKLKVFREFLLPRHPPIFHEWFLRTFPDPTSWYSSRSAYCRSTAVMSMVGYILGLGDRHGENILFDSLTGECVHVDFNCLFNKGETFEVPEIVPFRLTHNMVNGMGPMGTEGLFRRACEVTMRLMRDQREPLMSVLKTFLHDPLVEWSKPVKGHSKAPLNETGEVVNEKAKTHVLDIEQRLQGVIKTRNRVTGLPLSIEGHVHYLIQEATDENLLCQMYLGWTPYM
Voltage-gated inwardly rectifying potassium channel KCNH2, sequence (Q12809 whole entry): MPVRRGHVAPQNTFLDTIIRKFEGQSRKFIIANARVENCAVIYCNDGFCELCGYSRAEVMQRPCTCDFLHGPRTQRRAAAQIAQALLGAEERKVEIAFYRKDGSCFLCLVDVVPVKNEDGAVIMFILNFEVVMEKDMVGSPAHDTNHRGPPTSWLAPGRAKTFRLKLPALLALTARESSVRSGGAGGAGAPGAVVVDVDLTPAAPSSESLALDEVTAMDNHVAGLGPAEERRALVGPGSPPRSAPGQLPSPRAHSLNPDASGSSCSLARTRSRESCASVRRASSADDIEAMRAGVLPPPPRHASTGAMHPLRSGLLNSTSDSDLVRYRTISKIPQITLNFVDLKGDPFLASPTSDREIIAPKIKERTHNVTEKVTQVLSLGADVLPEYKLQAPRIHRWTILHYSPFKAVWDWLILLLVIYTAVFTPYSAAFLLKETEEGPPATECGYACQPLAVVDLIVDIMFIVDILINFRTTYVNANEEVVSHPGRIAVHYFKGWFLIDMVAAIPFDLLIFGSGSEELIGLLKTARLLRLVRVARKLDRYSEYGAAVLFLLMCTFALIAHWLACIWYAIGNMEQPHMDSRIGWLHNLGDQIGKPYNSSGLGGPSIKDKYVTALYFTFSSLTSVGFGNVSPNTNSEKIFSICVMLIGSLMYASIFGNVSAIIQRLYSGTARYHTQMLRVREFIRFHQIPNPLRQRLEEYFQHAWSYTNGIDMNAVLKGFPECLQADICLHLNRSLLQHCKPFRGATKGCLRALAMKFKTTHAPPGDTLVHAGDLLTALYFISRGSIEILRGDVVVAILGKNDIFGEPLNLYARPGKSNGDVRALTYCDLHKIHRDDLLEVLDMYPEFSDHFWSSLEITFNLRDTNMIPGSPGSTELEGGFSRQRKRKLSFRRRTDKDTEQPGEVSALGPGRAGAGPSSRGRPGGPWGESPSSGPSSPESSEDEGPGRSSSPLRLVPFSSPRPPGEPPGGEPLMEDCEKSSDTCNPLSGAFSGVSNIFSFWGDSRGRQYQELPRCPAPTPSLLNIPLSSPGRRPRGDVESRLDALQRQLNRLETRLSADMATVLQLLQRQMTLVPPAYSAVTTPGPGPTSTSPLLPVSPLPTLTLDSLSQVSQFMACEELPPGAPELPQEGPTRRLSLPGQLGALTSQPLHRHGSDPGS

- clearance (in vivo [1]): 19.5 mL/min/kg
- hepatocyte CLint [2]: 8.7 µL/min/1e6 cells
- hepatocyte CLint [3]: 5.1 µL/min/1e6 cells
- IC50 [4]: > 30 µM
- half-life (in vivo [5]): 5 h
- Vd [6]: 5.7 L/kg
- solubility thermodynamic at 24 h [7]: 540 µM (≈ 249 µg/mL)
- bioavailability [8]: 65%
- clearance (in vivo [9]): 27.6 mL/min/kg
- efflux ratio (in vitro): 3
- half-life (in vivo [10]): 5 h
- Vd [11]: 11 L/kg
- Papp A→B [12]: 7.8 ×10⁻⁶ cm/s
- logD [14]: 1.6
- bioavailability [15]: 50%
- pKa [16]: 9.5
Compound: CO[C@H]1C[C@@H](n2c(=O)n(C)c3cnc4ccc(-c5ccc(OCCCN(C)C)nc5)cc4c32)C1
- IC50 [13]: > 33 µM

- Ratio IC50 (Homo sapiens [17]): > 300
- Ratio IC50 (Homo sapiens [18]): > 300
- Ratio IC50 (Homo sapiens [19]): > 300
- IC50 [20]: 0.003 µM
- Ratio IC50 (Homo sapiens [21]): > 300
Compound: CN1CCN(CCC(=O)Nc2ccc3c(c2)Sc2cccc(-c4cc(=O)cc(N5CCOCC5)o4)c2S3)CC1
